Source: PMC6437697 (Journal of Medicinal Chemistry, 2019)

Tests used:
Assay in all cases: KINOMEscan
Type in all cases: binding
Settings in all cases: read-out: % control activity remaining
[1] = target: T1, LKB1 (Homo sapiens, UniProt Q15831)
T1 construct: purchased Eurofins DiscoverX KINOMEscan
T1 sequence (Q15831 1-433): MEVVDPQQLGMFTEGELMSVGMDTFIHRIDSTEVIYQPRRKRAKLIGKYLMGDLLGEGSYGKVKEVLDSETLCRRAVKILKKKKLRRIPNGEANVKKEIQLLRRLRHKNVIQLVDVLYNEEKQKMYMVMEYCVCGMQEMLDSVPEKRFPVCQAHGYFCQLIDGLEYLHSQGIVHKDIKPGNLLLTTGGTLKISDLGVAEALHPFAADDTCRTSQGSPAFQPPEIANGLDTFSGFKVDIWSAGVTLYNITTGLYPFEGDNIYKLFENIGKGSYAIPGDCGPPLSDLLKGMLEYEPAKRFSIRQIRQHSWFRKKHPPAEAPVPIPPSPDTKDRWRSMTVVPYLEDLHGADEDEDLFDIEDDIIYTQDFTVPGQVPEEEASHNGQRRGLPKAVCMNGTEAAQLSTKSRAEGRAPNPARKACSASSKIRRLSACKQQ

[2] = target: T2, PDGFRA (Homo sapiens, UniProt P16234)
T2 construct: purchased Eurofins DiscoverX KINOMEscan

[3] = target: T3, ERN1 (Homo sapiens, UniProt O75460)
T3 construct: purchased Eurofins DiscoverX KINOMEscan

[4] = target: T4, FLT3(R834Q) (Homo sapiens, UniProt P36888, R834Q)
T4 construct: purchased Eurofins DiscoverX KINOMEscan
T4 sequence (P36888 27-993 R834Q): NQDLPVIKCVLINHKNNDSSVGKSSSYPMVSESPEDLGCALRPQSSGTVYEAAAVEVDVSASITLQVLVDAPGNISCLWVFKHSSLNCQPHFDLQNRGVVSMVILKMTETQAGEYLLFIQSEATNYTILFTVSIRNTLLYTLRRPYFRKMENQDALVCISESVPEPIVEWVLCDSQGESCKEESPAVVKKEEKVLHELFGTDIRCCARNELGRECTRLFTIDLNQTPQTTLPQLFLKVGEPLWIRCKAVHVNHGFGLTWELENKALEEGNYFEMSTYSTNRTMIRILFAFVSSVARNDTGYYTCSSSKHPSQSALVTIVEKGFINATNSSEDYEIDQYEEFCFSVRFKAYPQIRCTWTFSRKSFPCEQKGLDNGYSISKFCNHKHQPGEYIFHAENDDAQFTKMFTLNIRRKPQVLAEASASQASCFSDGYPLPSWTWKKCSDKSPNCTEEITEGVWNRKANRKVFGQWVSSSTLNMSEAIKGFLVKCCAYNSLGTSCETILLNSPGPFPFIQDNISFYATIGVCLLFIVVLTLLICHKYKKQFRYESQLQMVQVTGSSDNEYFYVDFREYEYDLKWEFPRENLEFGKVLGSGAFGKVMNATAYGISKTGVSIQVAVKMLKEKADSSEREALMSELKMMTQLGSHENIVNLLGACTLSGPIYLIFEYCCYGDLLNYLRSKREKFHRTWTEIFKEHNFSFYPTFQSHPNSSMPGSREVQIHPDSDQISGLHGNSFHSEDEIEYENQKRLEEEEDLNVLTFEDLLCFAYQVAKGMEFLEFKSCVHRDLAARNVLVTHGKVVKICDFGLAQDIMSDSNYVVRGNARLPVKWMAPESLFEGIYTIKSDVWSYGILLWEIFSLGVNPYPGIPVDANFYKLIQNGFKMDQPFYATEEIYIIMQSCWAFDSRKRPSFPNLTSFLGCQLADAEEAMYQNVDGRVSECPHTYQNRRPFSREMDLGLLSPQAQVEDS

[5] = target: T5, ULK3 (Homo sapiens, UniProt Q6PHR2)
T5 construct: purchased Eurofins DiscoverX KINOMEscan
T5 sequence (Q6PHR2 1-472): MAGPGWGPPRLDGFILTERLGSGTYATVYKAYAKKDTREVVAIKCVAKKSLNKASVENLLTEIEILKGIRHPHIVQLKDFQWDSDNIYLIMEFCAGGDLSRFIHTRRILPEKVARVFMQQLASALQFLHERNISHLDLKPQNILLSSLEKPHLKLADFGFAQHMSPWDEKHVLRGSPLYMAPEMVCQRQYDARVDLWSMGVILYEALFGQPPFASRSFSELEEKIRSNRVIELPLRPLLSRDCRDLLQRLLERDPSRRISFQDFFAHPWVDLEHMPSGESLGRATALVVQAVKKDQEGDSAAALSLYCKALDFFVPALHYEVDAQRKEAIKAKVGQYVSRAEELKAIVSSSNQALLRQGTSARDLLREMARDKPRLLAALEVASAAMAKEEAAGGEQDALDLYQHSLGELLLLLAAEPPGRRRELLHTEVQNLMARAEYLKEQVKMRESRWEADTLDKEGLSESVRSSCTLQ

[6] = target: T6, GCN2(Kin.Dom.2,S808G) (Homo sapiens, UniProt Q9P2K8, S808G)
T6 construct: GCN2(Kin.Dom.2,S808G); purchased Eurofins DiscoverX KINOMEscan
T6 sequence (Q9P2K8 590-1001 S808G limits assumed): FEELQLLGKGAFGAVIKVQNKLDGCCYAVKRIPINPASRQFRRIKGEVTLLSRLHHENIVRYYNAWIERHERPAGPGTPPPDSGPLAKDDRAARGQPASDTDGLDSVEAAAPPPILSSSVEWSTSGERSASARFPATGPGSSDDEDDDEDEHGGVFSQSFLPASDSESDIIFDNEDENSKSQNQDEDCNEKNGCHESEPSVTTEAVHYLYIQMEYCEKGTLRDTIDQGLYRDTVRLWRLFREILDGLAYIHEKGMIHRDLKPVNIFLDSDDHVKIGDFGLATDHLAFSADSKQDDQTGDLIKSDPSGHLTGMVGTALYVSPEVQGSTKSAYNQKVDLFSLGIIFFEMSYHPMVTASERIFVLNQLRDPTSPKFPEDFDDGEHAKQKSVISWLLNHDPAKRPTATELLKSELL

[7] = target: T7, CHEK2 (Homo sapiens, UniProt O96017)
T7 construct: purchased Eurofins DiscoverX KINOMEscan
T7 sequence (O96017 whole entry): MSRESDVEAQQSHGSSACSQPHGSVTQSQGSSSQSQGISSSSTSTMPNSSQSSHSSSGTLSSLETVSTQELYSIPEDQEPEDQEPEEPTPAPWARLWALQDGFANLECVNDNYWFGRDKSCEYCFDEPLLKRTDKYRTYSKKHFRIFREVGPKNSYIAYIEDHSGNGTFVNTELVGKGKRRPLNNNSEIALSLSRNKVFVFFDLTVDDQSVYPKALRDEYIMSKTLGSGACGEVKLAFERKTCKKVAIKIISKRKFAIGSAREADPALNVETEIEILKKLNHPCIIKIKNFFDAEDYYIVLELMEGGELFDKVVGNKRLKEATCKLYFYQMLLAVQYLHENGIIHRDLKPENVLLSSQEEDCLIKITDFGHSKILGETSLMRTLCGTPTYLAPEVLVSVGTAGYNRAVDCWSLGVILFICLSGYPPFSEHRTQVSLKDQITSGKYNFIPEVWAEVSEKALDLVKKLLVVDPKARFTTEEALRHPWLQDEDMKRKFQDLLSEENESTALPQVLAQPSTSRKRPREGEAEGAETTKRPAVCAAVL

T3 sequence (O75460 19-977): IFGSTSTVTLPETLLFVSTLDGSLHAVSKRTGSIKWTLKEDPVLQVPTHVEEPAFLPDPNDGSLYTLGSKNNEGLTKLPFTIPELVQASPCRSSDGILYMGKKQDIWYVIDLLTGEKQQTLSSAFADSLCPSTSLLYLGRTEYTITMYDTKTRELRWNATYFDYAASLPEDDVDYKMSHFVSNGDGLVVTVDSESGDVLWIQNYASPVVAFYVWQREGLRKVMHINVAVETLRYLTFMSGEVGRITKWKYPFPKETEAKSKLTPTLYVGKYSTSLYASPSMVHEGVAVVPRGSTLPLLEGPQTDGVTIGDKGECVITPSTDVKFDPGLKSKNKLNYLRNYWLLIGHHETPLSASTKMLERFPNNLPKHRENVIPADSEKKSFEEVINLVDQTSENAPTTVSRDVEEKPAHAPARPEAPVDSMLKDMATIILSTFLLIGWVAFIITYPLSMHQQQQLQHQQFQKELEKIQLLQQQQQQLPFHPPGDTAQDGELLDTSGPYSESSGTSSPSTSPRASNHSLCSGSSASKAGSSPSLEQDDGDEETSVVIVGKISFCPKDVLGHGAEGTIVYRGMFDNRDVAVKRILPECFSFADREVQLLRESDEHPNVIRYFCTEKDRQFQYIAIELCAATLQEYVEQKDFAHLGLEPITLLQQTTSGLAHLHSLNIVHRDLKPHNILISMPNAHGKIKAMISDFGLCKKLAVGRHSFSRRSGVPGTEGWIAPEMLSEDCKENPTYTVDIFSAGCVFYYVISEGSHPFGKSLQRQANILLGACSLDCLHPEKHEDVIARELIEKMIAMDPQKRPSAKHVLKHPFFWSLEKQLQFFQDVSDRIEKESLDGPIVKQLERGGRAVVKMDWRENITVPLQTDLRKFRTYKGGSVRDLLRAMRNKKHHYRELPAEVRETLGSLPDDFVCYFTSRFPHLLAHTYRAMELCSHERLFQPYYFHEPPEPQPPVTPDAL
T2 sequence (P16234 24-1089): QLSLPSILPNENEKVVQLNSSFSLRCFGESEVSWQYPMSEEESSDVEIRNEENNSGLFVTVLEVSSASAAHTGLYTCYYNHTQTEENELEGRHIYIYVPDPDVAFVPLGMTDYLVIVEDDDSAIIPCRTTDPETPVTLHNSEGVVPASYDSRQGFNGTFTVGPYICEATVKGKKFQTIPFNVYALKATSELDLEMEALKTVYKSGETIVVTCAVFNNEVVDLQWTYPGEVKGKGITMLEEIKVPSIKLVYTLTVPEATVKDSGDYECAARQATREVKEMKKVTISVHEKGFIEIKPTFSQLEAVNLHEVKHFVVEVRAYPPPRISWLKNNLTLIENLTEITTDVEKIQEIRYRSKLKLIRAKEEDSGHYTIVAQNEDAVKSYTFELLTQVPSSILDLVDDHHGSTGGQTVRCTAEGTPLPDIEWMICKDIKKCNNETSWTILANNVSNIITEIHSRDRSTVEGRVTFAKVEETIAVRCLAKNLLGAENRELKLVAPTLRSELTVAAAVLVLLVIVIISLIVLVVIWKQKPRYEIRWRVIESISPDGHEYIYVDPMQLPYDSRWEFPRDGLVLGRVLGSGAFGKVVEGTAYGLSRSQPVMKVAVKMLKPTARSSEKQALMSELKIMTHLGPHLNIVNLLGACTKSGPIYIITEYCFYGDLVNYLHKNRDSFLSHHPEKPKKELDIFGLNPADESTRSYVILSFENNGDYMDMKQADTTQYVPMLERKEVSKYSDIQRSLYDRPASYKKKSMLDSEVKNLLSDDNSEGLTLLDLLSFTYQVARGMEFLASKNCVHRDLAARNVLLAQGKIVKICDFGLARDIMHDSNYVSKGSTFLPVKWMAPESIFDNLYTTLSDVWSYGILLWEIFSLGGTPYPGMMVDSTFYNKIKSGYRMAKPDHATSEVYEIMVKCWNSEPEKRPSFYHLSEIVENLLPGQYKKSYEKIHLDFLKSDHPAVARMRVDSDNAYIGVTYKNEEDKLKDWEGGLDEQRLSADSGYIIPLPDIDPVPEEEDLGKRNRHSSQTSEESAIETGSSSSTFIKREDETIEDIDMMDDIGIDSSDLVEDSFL

**Q.** `Clc1cc(NCC2CC2)c2ncc(-c3ccc4[nH]ncc4c3)n2n1` [compound 2, 6-Chloro-N-(cyclopropylmethyl)-3-(1H-indazol-5-yl)imidazo[1,2-b]pyridazin-8-amine] was tested. Which remaining binding at 1 µM [1] did it give?
**A.** 52%

**Q.** What about the remaining binding at 1 µM [2] of the same compound?
**A.** 12%

**Q.** And the remaining binding at 1 µM [3]?
**A.** 69%

**Q.** What about the remaining binding at 1 µM [4] of the same compound?
**A.** 94%

**Q.** What about the remaining binding at 1 µM [5] of the same compound?
**A.** 78%

**Q.** And the remaining binding at 1 µM [6]?
**A.** 93%

**Q.** What about the remaining binding at 1 µM [7] of the same compound?
**A.** 88%

**Q.** Which remaining binding at 1 µM [1] does the source give for `O=C(CN1CCOCC1)N[C@H]1CC[C@H](Nc2cc(Cl)nn3c(-c4ccc5[nH]ncc5c4)cnc23)CC1` [compound 26] here?
**A.** 98%

**Q.** And the remaining binding at 1 µM [2]?
**A.** 0.3%

**Q.** And the remaining binding at 1 µM [3]?
**A.** 41%

**Q.** What about the remaining binding at 1 µM [4] of the same compound?
**A.** 0.7%

**Q.** And the remaining binding at 1 µM [5]?
**A.** 95%

**Q.** And the remaining binding at 1 µM [6]?
**A.** 97%

**Q.** And the remaining binding at 1 µM [7]?
**A.** 61%

**Q.** For `CN1CCC(CNc2cc(Cl)nn3c(-c4cc5nc(Nc6ccccc6)[nH]c5cc4F)cnc23)CC1` [compound 31, 6-Chloro-3-(6-fluoro-2-(phenylamino)-1H-benzo[d]imidazol-5-yl)-N-((1-methylpiperidin-4-yl)methyl)imidazo[1,2-b]pyridazin-8-amine], which remaining binding at 1 µM [1] is on record?
**A.** 77%

**Q.** And the remaining binding at 1 µM [2]?
**A.** 94%

**Q.** What about the remaining binding at 1 µM [3] of the same compound?
**A.** 33%

**Q.** What about the remaining binding at 1 µM [4] of the same compound?
**A.** 100%

**Q.** What about the remaining binding at 1 µM [5] of the same compound?
**A.** 68%

**Q.** And the remaining binding at 1 µM [6]?
**A.** 77%

**Q.** What about the remaining binding at 1 µM [7] of the same compound?
**A.** 100%
